The source of these data is article PMC12596731, “Cys–Lys stapling for unprotected peptides via tunable linkers” (National Science Review, 2025).

This series can be described thus: Cys-Lys stapling of unprotected peptides with unsymmetrical linker (1.5 equiv): Cys thiol displaces phthalimide from N-thiophthalimide (disulfide, ~1 min), then ring closure by Lys amine attack on pentafluorophenyl ester with DIPEA (4 equiv). Particulars: the molecule shown is the open-chain precursor, CH3CN:H2O 3:1, 25.0 °C, 0.167 h.

As to `CC(=O)N[C@@H](CCC(N)=O)C(=O)N[C@@H](CO)C(=O)N[C@@H](CCC(N)=O)C(=O)N[C@@H](CCC(N)=O)C(=O)N[C@H](C(=O)N[C@@H](Cc1ccccc1)C(=O)N[C@@H](CSS/C(=C/Cl)CCC(=O)Oc1c(F)c(F)c(F)c(F)c1F)C(=O)N[C@@H](CC(N)=O)C(=O)N[C@@H](CC(C)C)C(=O)N[C@@H](Cc1c[nH]c2ccccc12)C(=O)N[C@@H](CCCNC(=N)N)C(=O)N[C@@H](CC(C)C)C(=O)N[C@@H](CC(C)C)C(=O)N[C@@H](CCCCN)C(=O)N[C@@H](CCC(N)=O)C(=O)N[C@@H](CC(N)=O)C(N)=O)[C@@H](C)O`, the ring closure, isolated yield (34-membered ring) was determined as 79%.

Consider `CC(=O)N[C@@H](CCC(N)=O)C(=O)N[C@@H](CO)C(=O)N[C@@H](CCC(N)=O)C(=O)N[C@@H](CCC(N)=O)C(=O)N[C@H](C(=O)N[C@@H](Cc1ccccc1)C(=O)N[C@@H](CSS/C(=C/Cl)CCCCC(=O)Oc1c(F)c(F)c(F)c(F)c1F)C(=O)N[C@@H](CC(N)=O)C(=O)N[C@@H](CC(C)C)C(=O)N[C@@H](Cc1c[nH]c2ccccc12)C(=O)N[C@@H](CCCNC(=N)N)C(=O)N[C@@H](CC(C)C)C(=O)N[C@@H](CC(C)C)C(=O)N[C@@H](CCCCN)C(=O)N[C@@H](CCC(N)=O)C(=O)N[C@@H](CC(N)=O)C(N)=O)[C@@H](C)O`, for which the ring closure, isolated yield (36-membered ring) was determined as 84%. As for `CC(=O)N[C@@H](CCC(N)=O)C(=O)N[C@@H](CO)C(=O)N[C@@H](CCC(N)=O)C(=O)N[C@@H](CCC(N)=O)C(=O)N[C@H](C(=O)N[C@@H](Cc1ccccc1)C(=O)N[C@@H](CSS/C(=C/Cl)CCCCCC(=O)Oc1c(F)c(F)c(F)c(F)c1F)C(=O)N[C@@H](CC(N)=O)C(=O)N[C@@H](CC(C)C)C(=O)N[C@@H](Cc1c[nH]c2ccccc12)C(=O)N[C@@H](CCCNC(=N)N)C(=O)N[C@@H](CC(C)C)C(=O)N[C@@H](CC(C)C)C(=O)N[C@@H](CCCCN)C(=O)N[C@@H](CCC(N)=O)C(=O)N[C@@H](CC(N)=O)C(N)=O)[C@@H](C)O`, the ring closure, isolated yield (37-membered ring) came to 78%. In the case of `CC(=O)N[C@@H](CCC(N)=O)C(=O)N[C@@H](CO)C(=O)N[C@@H](CCC(N)=O)C(=O)N[C@@H](CCC(N)=O)C(=O)N[C@H](C(=O)N[C@@H](Cc1ccccc1)C(=O)N[C@@H](CSS/C(=C/Cl)CCOc1ccc(C(=O)Oc2c(F)c(F)c(F)c(F)c2F)cc1)C(=O)N[C@@H](CC(N)=O)C(=O)N[C@@H](CC(C)C)C(=O)N[C@@H](Cc1c[nH]c2ccccc12)C(=O)N[C@@H](CCCNC(=N)N)C(=O)N[C@@H](CC(C)C)C(=O)N[C@@H](CC(C)C)C(=O)N[C@@H](CCCCN)C(=O)N[C@@H](CCC(N)=O)C(=O)N[C@@H](CC(N)=O)C(N)=O)[C@@H](C)O`, the ring closure, isolated yield (39-membered ring) turned out to be 68%. Consider `CC(=O)N[C@@H](CCC(N)=O)C(=O)N[C@@H](CO)C(=O)N[C@@H](CCC(N)=O)C(=O)N[C@@H](CCC(N)=O)C(=O)N[C@H](C(=O)N[C@@H](Cc1ccccc1)C(=O)N[C@@H](CSS/C(=C/Cl)CCOc1cccc(C(=O)Oc2c(F)c(F)c(F)c(F)c2F)c1)C(=O)N[C@@H](CC(N)=O)C(=O)N[C@@H](CC(C)C)C(=O)N[C@@H](Cc1c[nH]c2ccccc12)C(=O)N[C@@H](CCCNC(=N)N)C(=O)N[C@@H](CC(C)C)C(=O)N[C@@H](CC(C)C)C(=O)N[C@@H](CCCCN)C(=O)N[C@@H](CCC(N)=O)C(=O)N[C@@H](CC(N)=O)C(N)=O)[C@@H](C)O`, for which the ring closure, isolated yield (38-membered ring) worked out at 85%. As to `CC(=O)N[C@@H](CCC(N)=O)C(=O)N[C@@H](CO)C(=O)N[C@@H](CCC(N)=O)C(=O)N[C@@H](CCC(N)=O)C(=O)N[C@H](C(=O)N[C@@H](Cc1ccccc1)C(=O)N[C@@H](CSS/C(=C/Cl)CCOc1ccccc1C(=O)Oc1c(F)c(F)c(F)c(F)c1F)C(=O)N[C@@H](CC(N)=O)C(=O)N[C@@H](CC(C)C)C(=O)N[C@@H](Cc1c[nH]c2ccccc12)C(=O)N[C@@H](CCCNC(=N)N)C(=O)N[C@@H](CC(C)C)C(=O)N[C@@H](CC(C)C)C(=O)N[C@@H](CCCCN)C(=O)N[C@@H](CCC(N)=O)C(=O)N[C@@H](CC(N)=O)C(N)=O)[C@@H](C)O`, for the setting “37-membered ring”, the ring closure, isolated yield was 65%.

Turning to `CC(=O)N[C@@H](CCC(N)=O)C(=O)N[C@@H](CO)C(=O)N[C@@H](CCC(N)=O)C(=O)N[C@@H](CCC(N)=O)C(=O)N[C@H](C(=O)N[C@@H](Cc1ccccc1)C(=O)N[C@@H](CSS/C(=C/Cl)COCC(=O)Oc1c(F)c(F)c(F)c(F)c1F)C(=O)N[C@@H](CC(N)=O)C(=O)N[C@@H](CC(C)C)C(=O)N[C@@H](Cc1c[nH]c2ccccc12)C(=O)N[C@@H](CCCNC(=N)N)C(=O)N[C@@H](CC(C)C)C(=O)N[C@@H](CC(C)C)C(=O)N[C@@H](CCCCN)C(=O)N[C@@H](CCC(N)=O)C(=O)N[C@@H](CC(N)=O)C(N)=O)[C@@H](C)O`, for the setting “35-membered ring”, the ring closure, isolated yield was determined as 89%. For `CC(=O)N[C@H](C(=O)N[C@@H](CO)C(=O)N[C@@H](Cc1ccccc1)C(=O)N[C@@H](CCCCN)C(=O)N[C@@H](CCC(N)=O)C(=O)N[C@@H](Cc1ccc(O)cc1)C(=O)N[C@@H](Cc1c[nH]c2ccccc12)C(=O)N[C@@H](CSS/C(=C/Cl)CCC(=O)Oc1c(F)c(F)c(F)c(F)c1F)C(=O)N[C@@H](CC(C)C)C(=O)N[C@@H](CC(C)C)C(=O)N[C@@H](CO)C(=O)N[C@@H](CCCNC(=N)N)C(N)=O)[C@@H](C)O`, the ring closure, isolated yield (25-membered ring) amounted to 69%. Take `CC(=O)N[C@H](C(=O)N[C@@H](CO)C(=O)N[C@@H](Cc1ccccc1)C(=O)N[C@@H](CCCCN)C(=O)N[C@@H](CCC(N)=O)C(=O)N[C@@H](Cc1ccc(O)cc1)C(=O)N[C@@H](Cc1c[nH]c2ccccc12)C(=O)N[C@@H](CSS/C(=C/Cl)CCCC(=O)Oc1c(F)c(F)c(F)c(F)c1F)C(=O)N[C@@H](CC(C)C)C(=O)N[C@@H](CC(C)C)C(=O)N[C@@H](CO)C(=O)N[C@@H](CCCNC(=N)N)C(N)=O)[C@@H](C)O`: the ring closure, isolated yield (26-membered ring) worked out at 85%. Take `CC(=O)N[C@H](C(=O)N[C@@H](CO)C(=O)N[C@@H](Cc1ccccc1)C(=O)N[C@@H](CCCCN)C(=O)N[C@@H](CCC(N)=O)C(=O)N[C@@H](Cc1ccc(O)cc1)C(=O)N[C@@H](Cc1c[nH]c2ccccc12)C(=O)N[C@@H](CSS/C(=C/Cl)CCCCC(=O)Oc1c(F)c(F)c(F)c(F)c1F)C(=O)N[C@@H](CC(C)C)C(=O)N[C@@H](CC(C)C)C(=O)N[C@@H](CO)C(=O)N[C@@H](CCCNC(=N)N)C(N)=O)[C@@H](C)O`: under “27-membered ring”, the ring closure, isolated yield was 76%. As for `CC(=O)N[C@H](C(=O)N[C@@H](CO)C(=O)N[C@@H](Cc1ccccc1)C(=O)N[C@@H](CCCCN)C(=O)N[C@@H](CCC(N)=O)C(=O)N[C@@H](Cc1ccc(O)cc1)C(=O)N[C@@H](Cc1c[nH]c2ccccc12)C(=O)N[C@@H](CSS/C(=C/Cl)CCCCCCCCC(=O)Oc1c(F)c(F)c(F)c(F)c1F)C(=O)N[C@@H](CC(C)C)C(=O)N[C@@H](CC(C)C)C(=O)N[C@@H](CO)C(=O)N[C@@H](CCCNC(=N)N)C(N)=O)[C@@H](C)O`, the ring closure, isolated yield (31-membered ring) stood at 68%. `CC(=O)N[C@H](C(=O)N[C@@H](CO)C(=O)N[C@@H](Cc1ccccc1)C(=O)N[C@@H](CCCCN)C(=O)N[C@@H](CCC(N)=O)C(=O)N[C@@H](Cc1ccc(O)cc1)C(=O)N[C@@H](Cc1c[nH]c2ccccc12)C(=O)N[C@@H](CSS/C(=C/Cl)CCOc1cccc(C(=O)Oc2c(F)c(F)c(F)c(F)c2F)c1)C(=O)N[C@@H](CC(C)C)C(=O)N[C@@H](CC(C)C)C(=O)N[C@@H](CO)C(=O)N[C@@H](CCCNC(=N)N)C(N)=O)[C@@H](C)O`: the ring closure, isolated yield (29-membered ring) turned out to be 85%. As for `CC(=O)N[C@H](C(=O)N[C@@H](CO)C(=O)N[C@@H](Cc1ccccc1)C(=O)N[C@@H](CCCCN)C(=O)N[C@@H](CCC(N)=O)C(=O)N[C@@H](Cc1ccc(O)cc1)C(=O)N[C@@H](Cc1c[nH]c2ccccc12)C(=O)N[C@@H](CSS/C(=C/Cl)CCOc1ccccc1C(=O)Oc1c(F)c(F)c(F)c(F)c1F)C(=O)N[C@@H](CC(C)C)C(=O)N[C@@H](CC(C)C)C(=O)N[C@@H](CO)C(=O)N[C@@H](CCCNC(=N)N)C(N)=O)[C@@H](C)O`, the ring closure, isolated yield (28-membered ring) was determined as 82%. Consider `CC(=O)N[C@H](C(=O)N[C@@H](CO)C(=O)N[C@@H](Cc1ccccc1)C(=O)N[C@@H](CCCCN)C(=O)N[C@@H](CCC(N)=O)C(=O)N[C@@H](Cc1ccc(O)cc1)C(=O)N[C@@H](Cc1c[nH]c2ccccc12)C(=O)N[C@@H](CSS/C(=C/Cl)COCC(=O)Oc1c(F)c(F)c(F)c(F)c1F)C(=O)N[C@@H](CC(C)C)C(=O)N[C@@H](CC(C)C)C(=O)N[C@@H](CO)C(=O)N[C@@H](CCCNC(=N)N)C(N)=O)[C@@H](C)O`, for which, under “26-membered ring”, the ring closure, isolated yield is 78%. The same measure, in the same setting: under `CC(=O)N[C@H](C(=O)N[C@@H](CO)C(=O)N[C@@H](Cc1ccccc1)C(=O)N[C@@H](CCCCN)C(=O)N[C@@H](CCC(N)=O)C(=O)N[C@@H](Cc1ccc(O)cc1)C(=O)N[C@@H](Cc1c[nH]c2ccccc12)C(=O)N[C@@H](CSS/C(=C/Cl)c1cccc(C(=O)Oc2c(F)c(F)c(F)c(F)c2F)c1)C(=O)N[C@@H](CC(C)C)C(=O)N[C@@H](CC(C)C)C(=O)N[C@@H](CO)C(=O)N[C@@H](CCCNC(=N)N)C(N)=O)[C@@H](C)O` stands 84%.
